“Also recorded” adds a separate entry of the source.
Columns and labels:
RBC = experiment: membrane potential ratio (MPR) test: agent added to K+-free, EtOH-containing test buffer versus reference buffer; format: cell-based, human; conditions: for EtOH effect (hSK4 opening / hyperpolarization): hSK4 blockers added to the test buffer
From the text: It is essential to understand these differences so that the underlying pathophysiology of these disorders is better understood leading to better diagnostic markers and drug targets. […] Membrane potential ratio (MPR™) is the ratio between the membrane potential in the test buffer and that in the reference buffer. The reference buffer contains NaCl, CaCl2, glucose and Hepes whereas the test buffer contains ethyl alcohol (EtOH) in addition to these compounds. […] The role of the absence of K^+ ions in the buffer on membrane potential and the addition of EtOH needs to be understood in order to explain their effects.
The assay uses a reference buffer or regular buffer and a test buffer. The “reference buffer” or “regular buffer” contains only Na^+, Ca^2+, and HEPES without any other reagents. The “test buffer” containing no potassium (K^+-free buffer) is a HEPES buffer without potassium (4 mM NaHCO3, 5 mM HEPES, 134 mM NaCl, 2.3 mM CaCl2, and 5 mM glucose) and with a K^+ channel altering agent, at a pH of 6.8 (range of 6.6 to 7.0). The test buffer may also contain 30 μM ethacrynic acid dissolved in EtOH as solvent.
In order to verify the CAK channel is involved in the membrane potential of the RBC used for the membrane potential ratios (MPR™) tests, the CAK channel blockers, quinine and clotrimazole were added to the test buffer and the membrane potential ratios (MPR™) was determined. The membrane potential ratios (MPR™) values are shown in box plots. […] Similarly boxes 3, 4 and 5 show the results for clotrimazole (CLTX). Box 3 represents no CLTX, while box 4 for 2.5 micro molar CLTX and box 5 for 5 micro molar concentrations in the test buffer.
Blood samples from a patient were suspended in a reference buffer (reference buffer sample) as well as in a test buffer (test buffer sample) with 3,3′-dihexyloxacarbocyanine iodide (DiOC6) dye, incubated, spun, drained and the […] resuspended in their respective buffers without the dye. The resuspended buffer samples were then distributed in three separate 96 well plates and tested in a Plate Reader for fluorescence intensity. The Plate Reader recorded a data matrix of each of the 96 well plates and the data matrix was transferred to a Template to calculate the ratio between the test buffer sample and the corresponding reference buffer sample. The resulting ratios were calculated to determine the mean value, the standard deviation and the coefficient of variation. This procedure was repeated two more times and the resulting mean value, standard deviation and the coefficient of variation calculated in the same manner. The Membrane Potential Ratio (MPR™) obtained from the mean values was 0.781 (with a standard deviation of 0.014 and coefficient of variation of 1.76). Based on the MPR™ value of 0.781, the patient was diagnosed to have ADHD (with a greater than 97% probability).

diacylglycerol kinase = conditions: human red blood cell membranes; de Courcelles et al. 1985; cited from earlier work
[1] = system: calmodulin-dependent protein kinase II (CaM-kinase II); conditions: Ishida et al. 1995; cited from earlier work
[2] = CAK channel blockers added to the test buffer (quinine 1 mM; CLTX 2.5 and 5 micro molar), FIG. 2

Molecule: Nc1ncnc2c1nc(Sc1ccc(Cl)cc1)n2[C@@H]1O[C@@H]2COP(=O)(O)O[C@H]2[C@H]1O [8-CPT, 8-CPT-cAMP]
- effect on membrane potential ratio (MPR) / membrane potentials (RBC; 50 μM in the test buffer, FIG. 3): did not have any effect; also recorded: no effect

Molecule: Cc1nc2sccn2c(=O)c1CCN1CCC(=C(c2ccccc2)c2ccc(F)cc2)CC1 [ALX, 6-[2-[4-[(4-fluorophenyl)phenylmethylene]-1-piperidinyl]ethyl]-7-methyl-5H-thiazolo[3,2-a]pyrimidin-5-one]
- effect on membrane potential (RBC; three concentrations 2.5 μl, 5 μl and 7.5 μl, FIG. 7): depolarizes the membrane potential
- inhibition of diacylglycerol kinase (diacylglycerol kinase): found to inhibit diacylglycerol kinase

Molecule: CCCCCCCCCCCCCC(=O)O[C@@H]1[C@@H](C)[C@@]2(O)[C@@H](C=C(CO)C[C@]3(O)C(=O)C(C)=C[C@@H]23)[C@@H]2C(C)(C)[C@]12OC(C)=O [PMA, phorbol 12-myristate 13-acetate]
- effect on membrane potential ratio (MPR) / cell polarization (RBC; 2.5 μM in the test buffer versus without PMA, FIG. 4): depolarizes the cells very effectively

Molecule: CN[C@@H]1C[C@H]2O[C@@](C)([C@@H]1OC)n1c3ccccc3c3c4c(c5c6ccccc6n2c5c31)C(=O)NC4 [Staurosporine, staurosporine]
- effect on membrane potentials (RBC; three concentrations (250 nM, 500 nM and 750 nM) in the test buffer, FIG. 5): hyperpolarizes the membrane potentials very effectively
- effect on membrane potentials (RBC; three concentrations (250 nM, 500 nM and 750 nM) in the test buffer, FIG. 5, listed as staurosporine): hyperpolarizes the membrane potential in a concentration dependent manner

Molecule: Clc1ccccc1C(c1ccccc1)(c1ccccc1)n1ccnc1 [clotrimazole]
- effect on membrane potentials (RBC; [2]): depolarized the membrane potentials robustly
- EtOH effect (hSK4 opening / hyperpolarization) (RBC; FIG. 2): blocked

Molecule: C=C[C@H]1C[N@@]2CC[C@H]1C[C@H]2[C@H](O)c1ccnc2ccc(OC)cc12 [quinine]
- membrane potential ratio (MPR) values (RBC; 1 mM quinine in the test buffer compared to test buffer without quinine, FIG. 2): increased
- effect on membrane potentials (RBC; [2]): depolarized the membrane potentials robustly
- EtOH effect (hSK4 opening / hyperpolarization) (RBC; FIG. 2): blocked

Molecule: autocamtide-2-related inhibitory peptide [AIP]
- inhibition of CaM-kinase II [1]: highly specific and potent inhibitor
- effect on membrane potential (RBC; 5 μM concentration, FIG. 6): depolarizes the membrane potential robustly

Source: patent publication US10365268B2, “Methods for identifying modulators of membrane potentials in bipolar disorder and attention deficit hyperactivity disorder” (PsychNostics, LLC, priority 2011, dated 2019)
